Assay results: ChEMBL document CHEMBL2406941, “Discovery of 'molecular switches' within a GIRK activator scaffold that afford selective GIRK inhibitors” (Bioorg Med Chem Lett, 2013)

Assay: Activation of GIRK (unknown origin)
Parameters: species or system Homo sapiens

- EC50: > 100 µM
SMILES: C[C@@H]1O[C@@H](O[C@H]2[C@H](Oc3cc(O)c4c(c3)O[C@H](c3ccc(O)cc3)CC4=O)O[C@H](CO)[C@@H](O)[C@@H]2O)[C@H](O)[C@H](O)[C@H]1O [NARINGIN]
